Source: patent US20030087906A1, “NITROGEN SUBSTITUTED BIARYL PURINE DERIVATIVES AS POTENT ANTIPROLIFERATIVE AGENTS” (priority 2001, published 2003)
“And” between values parts separate entries of the source, which are not always exact repeats. Equal entries are not always repeated.

Experiments:
[1] = test system: SW-620; assay: NCI 60-cell line growth inhibition assay; format: cell-based; conditions: Homo sapiens
[2] = target: CyclinA/cdk2 (Homo sapiens, UniProt P24941); assay: CyclinA/cdk2 protein kinase assay (histone H1 phosphorylation); conditions: IC50 CyclinA/cdk2, complex immunopurified from HeLa cells; 15 μM ATP; replicate experiments
[3] = test system: MCF7; assay: NCI 60-cell line growth inhibition assay; format: cell-based; conditions: Homo sapiens
[4] = test system: IGROV1; assay: NCI 60-cell line growth inhibition assay; format: cell-based; conditions: Homo sapiens, IGROV-1
[5] = target: T1, CyclinB/cdk1 (Homo sapiens, UniProt P06493); assay: CyclinB/cdk1 protein kinase assay (histone H1 phosphorylation); format: biochemical; conditions: complex immunopurified from HeLa cells; 15 μM ATP; replicate experiments
T1 construct: Monoclonal antibody against cyclinB (GNS1) is added to the supernatant; endogenous in cells
Protocol: HeLa cells are blocked at the G1/S border by culturing in the presence of 2 mM thymidine for 20 h. The cells are then rinsed 3×in phosphate buffered saline and resuspended in regular medium. After 4 h of culture, the mitotic blocker, nocodazole is added to a final concentration of 75 ng/ml. […] The lysate is then clarified by centrifugation at 10,000×g for 10 min. The supernatant is collected and diluted 1:5 with Lysis Buffer. Monoclonal antibody against cyclinB (GNS1) is added to the supernatant to a final concentration of 5 μg/ml and shaken at 4° C. for 2 h. The immune complexes are then collected by the addition of 200 μl of protein agarose beads for 1 h. The beads are washed 4×in lysis buffer and 1×in kinase assay buffer.
Duplicate assays were performed at each concentration.

[6] = test system: SF-295; assay: NCI 60-cell line growth inhibition assay; format: cell-based; conditions: Homo sapiens
[7] = test system: MOLT-4; assay: NCI 60-cell line growth inhibition assay; format: cell-based; conditions: Homo sapiens
[8] = test system: BT-549; assay: NCI 60-cell line growth inhibition assay; format: cell-based; conditions: Homo sapiens
[9] = test system: PC-3; assay: NCI 60-cell line growth inhibition assay; format: cell-based; conditions: Homo sapiens
[10] = test system: ACHN; assay: NCI 60-cell line growth inhibition assay; format: cell-based; conditions: Homo sapiens
[11] = test system: EKVX; assay: NCI 60-cell line growth inhibition assay; format: cell-based; conditions: Homo sapiens
[12] = test system: UO-31; assay: NCI 60-cell line growth inhibition assay; format: cell-based; conditions: Homo sapiens
[13] = test system: U251; assay: NCI 60-cell line growth inhibition assay; format: cell-based; conditions: Homo sapiens, U-251
[14] = test system: M14; assay: NCI 60-cell line growth inhibition assay; format: cell-based; conditions: Homo sapiens
[15] = test system: K-562; assay: NCI 60-cell line growth inhibition assay; format: cell-based; conditions: Homo sapiens, K562
[16] = test system: UACC-62; assay: NCI 60-cell line growth inhibition assay; format: cell-based; conditions: Homo sapiens
[17] = test system: OVCAR-8; assay: NCI 60-cell line growth inhibition assay; format: cell-based; conditions: Homo sapiens
[18] = MTD (NCI in vivo evaluation, Table 8); conditions: mouse
[19] = test system: NCI-H322M; assay: NCI 60-cell line growth inhibition assay; format: cell-based; conditions: Homo sapiens
[20] = test system: DU-145; assay: NCI 60-cell line growth inhibition assay; format: cell-based; conditions: Homo sapiens
[21] = target: CyclinE/cdk2 (Homo sapiens, UniProt P24941); assay: CyclinE/cdk2 protein kinase assay (histone H1 phosphorylation); conditions: IC50 CyclinE/cdk2, complex immunopurified from HeLa cells; 15 μM ATP; replicate experiments
[22] = test system: HCT-15; assay: NCI 60-cell line growth inhibition assay; format: cell-based; conditions: Homo sapiens
[23] = test system: LOX IMVI; assay: NCI 60-cell line growth inhibition assay; format: cell-based; conditions: Homo sapiens
[24] = test system: HeLa S-3 cells; assay: Inhibition of cell growth of HeLa cells (SRB); format: cell-based, human; conditions: 2 days of treatment, replicate experiments
[25] = test system: HOP-92; assay: NCI 60-cell line growth inhibition assay; format: cell-based; conditions: Homo sapiens
[26] = test system: MDA-MB-435; assay: NCI 60-cell line growth inhibition assay; format: cell-based; conditions: Homo sapiens
[27] = NCI-H322M (Non-Small Cell Lung)

T1 sequence (P06493 whole entry): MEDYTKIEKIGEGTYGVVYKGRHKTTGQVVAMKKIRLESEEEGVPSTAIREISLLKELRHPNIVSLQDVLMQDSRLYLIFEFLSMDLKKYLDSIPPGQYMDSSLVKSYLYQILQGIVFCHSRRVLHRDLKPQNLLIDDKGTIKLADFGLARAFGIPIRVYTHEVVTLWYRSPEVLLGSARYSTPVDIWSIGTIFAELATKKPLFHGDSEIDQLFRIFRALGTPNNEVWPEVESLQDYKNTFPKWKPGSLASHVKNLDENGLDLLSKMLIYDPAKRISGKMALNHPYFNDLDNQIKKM
T1 sequence (P14635 whole entry partner): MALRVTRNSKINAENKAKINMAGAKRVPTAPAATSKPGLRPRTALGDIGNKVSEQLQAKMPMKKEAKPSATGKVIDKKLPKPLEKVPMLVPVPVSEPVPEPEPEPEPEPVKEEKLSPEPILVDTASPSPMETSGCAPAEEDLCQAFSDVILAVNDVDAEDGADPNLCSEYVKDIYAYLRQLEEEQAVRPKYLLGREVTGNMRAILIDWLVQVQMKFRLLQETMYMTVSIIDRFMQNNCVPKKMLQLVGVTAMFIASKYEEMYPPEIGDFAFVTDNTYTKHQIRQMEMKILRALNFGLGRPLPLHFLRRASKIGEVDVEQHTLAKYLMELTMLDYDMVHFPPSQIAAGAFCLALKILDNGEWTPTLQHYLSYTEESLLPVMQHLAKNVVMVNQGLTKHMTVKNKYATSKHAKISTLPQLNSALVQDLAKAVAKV

CC(C)n1cnc2c(NCc3ccc(-c4ccccn4)cc3)nc(N[C@H]3CC[C@H](N)CC3)nc21 [Compound 78]
GI50 ([1]; SW-620 (Colon)): < 0.01 µM
IC50 [2]: 0.9 µM and 0.7 µM
GI50 ([3]; MCF7 (Breast)): < 0.01 µM
GI50 ([4]; IGROV1 (Ovarian)): < 0.01 µM
IC50 [5]: 0.8 µM
GI50 ([6]; SF-295 (CNS)): 0.21 µM
GI50 ([7]; MOLT-4 (Leukemia)): < 0.01 µM
GI50 ([8]; BT-549 (Breast)): 0.04 µM
GI50 ([9]; PC-3 (Prostate)): < 0.01 µM
GI50 ([10]; ACHN (Renal)): 0.32 µM
GI50 ([11]; EKVX (Non-Small Cell Lung)): 0.05 µM
GI50 ([12]; UO-31 (Renal)): 0.17 µM
GI50 ([13]; U251 (CNS)): 0.02 µM
GI50 ([14]; M14 (Melanoma)): < 0.01 µM
GI50 ([15]; K-562 (Leukemia)): 0.02 µM
GI50 ([16]; UACC-62 (Melanoma)): 0.03 µM
GI50 ([17]; OVCAR-8 (Ovarian)): 0.02 µM
MTD [18]: 6.3 mg/kg
GI50 [19, 27]: < 0.01 µM
GI50 ([20]; DU-145 (Prostate)): 0.06 µM
IC50 [21]: 0.6 µM and 0.3 µM and 0.2 µM
GI50 ([22]; HCT-15 (Colon)): 1.48 µM

CC[C@H](CO)Nc1nc(NCc2ccc(-c3cccc([N+](=O)[O-])c3)cc2)c2ncn(C(C)C)c2n1 [Compound 48]
GI50 ([23]; LOX IMVI (Melanoma)): 0.19 µM
GI50 ([1]; SW-620 (Colon)): < 0.01 µM
IC50 [2]: 22 µM and 6 µM
GI50 ([3]; MCF7 (Breast)): 0.25 µM
GI50 ([4]; IGROV1 (Ovarian)): 0.23 µM
GI50 ([6]; SF-295 (CNS)): 0.24 µM
GI50 ([7]; MOLT-4 (Leukemia)): 0.05 µM
GI50 ([8]; BT-549 (Breast)): 0.01 µM
GI50 ([9]; PC-3 (Prostate)): 0.23 µM
GI50 ([10]; ACHN (Renal)): 0.25 µM
GI50 ([12]; UO-31 (Renal)): < 0.01 µM
GI50 ([13]; U251 (CNS)): 0.17 µM
GI50 ([14]; M14 (Melanoma)): < 0.01 µM
GI50 ([15]; K-562 (Leukemia)): 0.16 µM
GI50 ([16]; UACC-62 (Melanoma)): 0.1 µM
GI50 ([17]; OVCAR-8 (Ovarian)): 0.1 µM
GI50 [19, 27]: 0.03 µM
GI50 [24]: 0.6 µM and 0.5 µM
GI50 ([24]; Homo sapiens, HeLa S3, 48 h): 0.3 µM
GI50 ([20]; DU-145 (Prostate)): 0.55 µM
GI50 ([25]; HOP-92 (Non-Small Cell Lung)): 0.46 µM
IC50 [21]: 1 µM and 5 µM
GI50 ([22]; HCT-15 (Colon)): 0.02 µM

CC[C@H](CO)Nc1nc(NCc2ccc(-c3ccc(OC)cc3)cc2)c2ncn(C(C)C)c2n1 [Compound 43]
GI50 ([23]; LOX IMVI (Melanoma)): 3.4 µM
GI50 ([1]; SW-620 (Colon)): 1.6 µM
GI50 ([3]; MCF7 (Breast)): 2.7 µM
GI50 ([4]; IGROV1 (Ovarian)): 3.4 µM
GI50 ([6]; SF-295 (CNS)): 4 µM
GI50 ([7]; MOLT-4 (Leukemia)): 2 µM
GI50 ([8]; BT-549 (Breast)): 4 µM
GI50 ([9]; PC-3 (Prostate)): 38.9 µM
GI50 ([10]; ACHN (Renal)): 3.1 µM
GI50 ([11]; EKVX (Non-Small Cell Lung)): 2.8 µM
GI50 ([12]; UO-31 (Renal)): 2.8 µM
GI50 ([13]; U251 (CNS)): 2.3 µM
GI50 ([14]; M14 (Melanoma)): 2.2 µM
GI50 ([15]; K-562 (Leukemia)): 3.1 µM
GI50 ([16]; UACC-62 (Melanoma)): 3.3 µM
GI50 ([17]; OVCAR-8 (Ovarian)): 3.9 µM
GI50 [19, 27]: 3.5 µM
GI50 ([26]; MDA-MB-435 (Breast)): 2.1 µM
GI50 ([24]; Homo sapiens, HeLa S3, 48 h): 4 µM
GI50 ([20]; DU-145 (Prostate)): 2.6 µM
GI50 ([25]; HOP-92 (Non-Small Cell Lung)): 2.6 µM
GI50 ([22]; HCT-15 (Colon)): 3.9 µM

CC(=O)N[C@H]1CC[C@H](Nc2nc(NCc3ccc(-c4ccccc4)nc3)c3ncn(C(C)C)c3n2)CC1 [Compound 87]
GI50 ([23]; LOX IMVI (Melanoma)): 0.027 µM
GI50 ([1]; SW-620 (Colon)): < 0.01 µM
IC50 [2]: 4 µM and 2 µM and 0.5 µM
GI50 ([3]; MCF7 (Breast)): 0.04 µM
GI50 ([4]; IGROV1 (Ovarian)): 0.052 µM
IC50 [5]: 5 µM
GI50 ([6]; SF-295 (CNS)): 0.047 µM
GI50 ([7]; MOLT-4 (Leukemia)): 0.02 µM
GI50 ([8]; BT-549 (Breast)): 0.02 µM
GI50 ([9]; PC-3 (Prostate)): 0.018 µM
GI50 ([10]; ACHN (Renal)): 0.19 µM
GI50 ([12]; UO-31 (Renal)): 0.016 µM
GI50 ([13]; U251 (CNS)): 0.028 µM
GI50 ([14]; M14 (Melanoma)): < 0.01 µM
GI50 ([15]; K-562 (Leukemia)): 0.024 µM
GI50 ([16]; UACC-62 (Melanoma)): 0.045 µM
GI50 ([26]; MDA-MB-435 (Breast)): < 0.01 µM
GI50 [24]: 0.006 µM
GI50 ([20]; DU-145 (Prostate)): 0.22 µM
GI50 ([25]; HOP-92 (Non-Small Cell Lung)): 0.088 µM
IC50 [21]: 1 µM and 0.3 µM and 0.1 µM
GI50 ([22]; HCT-15 (Colon)): 0.066 µM

CC[C@H](CO)Nc1nc(NCc2ccc(-c3ccccc3)cc2)c2ncn(C(C)C)c2n1 [Compound 73]
GI50 ([3]; Breast, MCF7): 0.16 µM
GI50 ([4]; Ovarian, IGROV1): 0.32 µM
GI50 ([6]; CNS, SF-295): 0.25 µM
GI50 ([7]; Leukemia, MOLT-4): 0.32 µM
GI50 ([8]; Breast, BT-549): 0.25 µM
GI50 ([9]; Prostate, PC-3): 0.35 µM
GI50 ([10]; Renal, ACHN): 0.32 µM
GI50 ([11]; Non-Small Cell Lung, EKVX): 0.25 µM
GI50 ([12]; Renal, UO-31): 0.06 µM
GI50 ([13]; CNS, U251): 0.32 µM
GI50 ([14]; Melanoma, M14): 0.03 µM
GI50 ([15]; Leukemia, K-562): 0.16 µM
GI50 ([16]; Melanoma, UACC-62): 0.3 µM
MTD [18]: 100 mg/kg
GI50 ([19]; Non-Small Cell Lung, NCI-H322M): 0.16 µM
GI50 ([26]; Breast, MDA-MB-435): 0.25 µM
GI50 ([24]; Homo sapiens, HeLa S3, 48 h): 0.3 µM
GI50 ([20]; Prostate, DU-145): 7.08 µM
GI50 ([25]; Non-Small Cell Lung, HOP-92): 1 µM
GI50 ([22]; Colon, HCT-15): 0.18 µM

CC[C@H](CO)Nc1nc(NCc2ccc(-c3ccccn3)cc2)c2ncn(C(C)C)c2n1 [Compound 17]
GI50 ([23]; Melanoma, LOX IMVI): 0.32 µM
GI50 ([1]; Colon, SW-620): 0.01 µM
GI50 ([3]; Breast, MCF7): 0.16 µM
GI50 ([4]; Ovarian, IGROV1): 0.2 µM
GI50 ([6]; CNS, SF-295): 0.19 µM
GI50 ([7]; Leukemia, MOLT-4): 0.25 µM
GI50 ([8]; Breast, BT-549): 0.4 µM
GI50 ([9]; Prostate, PC-3): 0.2 µM
GI50 ([10]; Renal, ACHN): 0.4 µM
GI50 ([11]; Non-Small Cell Lung, EKVX): 2.51 µM
GI50 ([12]; Renal, UO-31): 0.1 µM
GI50 ([13]; CNS, U251): 0.4 µM
GI50 ([14]; Melanoma, M14): 0.03 µM
GI50 ([15]; Leukemia, K-562): 0.16 µM
GI50 ([16]; Melanoma, UACC-62): 0.27 µM
GI50 ([17]; Ovarian, OVCAR-8): 0.13 µM
MTD [18]: 100 mg/kg
GI50 ([19]; Non-Small Cell Lung, NCI-H322M): > 1000 µM
GI50 ([26]; Breast, MDA-MB-435): 0.2 µM
GI50 ([20]; Prostate, DU-145): 0.63 µM
GI50 ([25]; Non-Small Cell Lung, HOP-92): 1.58 µM
GI50 ([22]; Colon, HCT-15): 0.04 µM
